{
  "source": "paper PMC11157491",
  "about": "“Novel Alaninamide Derivatives with Drug-like Potential for Development as Antiseizure and Antinociceptive Therapies—In Vitro and In Vivo Characterization” (ACS Chemical Neuroscience, 2024)",
  "experiment": "Pharmacokinetic study in serum and brain",
  "type": "in vivo, mice",
  "details": "for k el: read-out: λz (converted); for Vd/F: read-out: Vz/F",
  "procedure": "Male CD-1 mice weighing 28–33 g housed in conditions of constant temperature with the 12:12 h light–dark cycle with free access to food and water were used in this study. The investigated compound was suspended in 1% Tween in sterile water for injection (Polpharma, Poland) and administered i.p. at two doses of 25 and 50 mg/kg. Additionally, the compound dissolved in a mixture of dimethylsulfoxide (DMSO), poly(ethylene glycol), and sterile water (1:2:7, v/v/v) was given orally (p.o.) at a dose of 25 mg/kg. The mice were sacrificed by decapitation under isoflurane anesthesia. Blood samples were collected at 5, 15, 30, 60, 120, 240, and 720 min after dosing (n = 3–4), and brains were harvested at the same time points. Blood was allowed to clot at room temperature for 20 min, and serum was separated by centrifugation at 3000 rpm for 10 min. The samples were stored at −80 °C until analysis. All animal procedures were approved by the First Ethics Committee on Animal Experimentation in Kraków (license no. 270/2019).\nBefore LC-MS/MS analysis, mouse brains were homogenized in distilled water at the ratio of 1:4 (w/v) using the ULTRA-TURRAX T10 basic tissue homogenizer (IKA, Germany). Brain homogenates or serum samples (50 μL) were deproteinized with 150 μL of 0.1% formic acid in acetonitrile with addition of the internal standard (valsartan), shaken for 10 min (IKA Vibrax VXR, Germany), and then centrifuged for 5 min at a speed of 8000g (Eppendorf miniSpin centrifuge, Germany). Supernatants were transferred into autosampler vials, and a sample volume of 1 μL was injected into the LC-MS/MS system. The autosampler temperature was maintained at 15 °C. Analytes were separated on a Hypersil Gold C18 analytical column (3 × 50 mm^2, 5 μm, Thermo Scientific) using an AB Sciex Exion LC AC HPLC system coupled with the triple quadrupole mass spectrometer (Sciex QTRAP 4500, both from the Danaher Corporation). The oven temperature was set at 30 °C. The initial mobile phase composition was 95% B (0.1% formic acid in water) and 5% A (0.1% formic acid in MeCN) for the first 2 min with a linear gradient to 5% B in the next 2 min and then isocratic mode for 2 min with the following rapid change back to 95% B in 0.1 min. The remaining time of elution was set at 95% B. The whole HPLC operation lasted 10 min, and the flow rate was set at 0.4 mL/min. Electrospray ionization (ESI) in the positive ion mode was used for ion production. […] The mass spectrometric conditions were optimized by continuous infusion of the standard solution at a rate of 7 μL/min using a Harvard infusion pump. The ion source temperature was maintained at 450 °C, and the ion spray voltage was set at 5500 V. The curtain gas (CUR) was set at 40 psi and the collision gas (CAD) at Medium. The calibration curves were constructed by plotting the ratio of the peak area of the studied compound to the internal standard (IS) versus drug concentration and generated by weighted (1/x × x) linear regression analysis. […] Working standard solutions were prepared in methanol by the serial dilution of the stock solution at the following concentrations: 0.01, 0.1, 0.25, 0.5, 1, 2.5, 5, 10, 20, 50, 100, and 200 μg/mL. To prepare samples for the calibration curve, 45 μL of the matrix (plasma or brain homogenate) was spiked with 5 μL of the standard working solution at an appropriate concentration level and vortexed for 10 s. For each matrix, there were two calibration curves constructed separately for lower and higher concentrations. Calibrators (as well as samples) from the upper concentration range were additionally 10 times diluted with the precipitating agent. The validated quantitation ranges for this method were from 0.001 to 5 μg/mL and from 0.1 to 20 μg/mL of serum, and from 0.005 to 25 μg/g and from 0.5 to 100 μg/g of the brain. Samples with the concentration of 28 above the upper limit of quantification were diluted 10 times with the blank matrix (serum or brain homogenate). […]",
  "key": {"[1]": {"details": "male, CD-1, mouse, ip, brain, i.p. 25 mg/kg, mice"}, "[2]": {"details": "male, CD-1, mouse, ip, brain, i.p. 50 mg/kg, mice"}, "[3]": {"details": "male, CD-1, mouse, ip, serum, i.p. 25 mg/kg, mice"}, "[4]": {"details": "male, CD-1, mouse, ip, serum, i.p. 50 mg/kg, mice"}, "[5]": {"details": "male, CD-1, mouse, po, brain, p.o. 25 mg/kg, mice"}, "[6]": {"details": "male, CD-1, mouse, po, serum, p.o. 25 mg/kg, mice"}},
  "note": "Like-named read-outs stand apart in the source and are kept apart here.",
  "data": [
    {"smiles": "CC(=O)NC(C)C(=O)N1CCN(c2cccc(OC(F)(F)F)c2)CC1", "note": "(stereo not shown) [Compound 28, N-(1-oxo-1-(4-(3-(Trifluoromethoxy)phenyl)piperazin-1-yl)propan-2-yl)acetamide]", "values": [
      {"measurement": "brain concentration", "setting": "after 25 mg/kg dose administration", "value": "> 10", "unit": "µM"},
      {"measurement": "AUC0–t", "setting": "brain, i.p. 25 mg/kg, mice", "value": "347,914.8 ng·min/mL (g)"},
      {"measurement": "AUC0–∞", "setting": "brain, i.p. 25 mg/kg, mice", "value": "348,212.5 ng·min/mL (g)"},
      {"measurement": "Cmax", "setting": "brain, i.p. 25 mg/kg, mice", "value": "13,683.3 ng/mL (g)"},
      {"measurement": "t0.5λz", "setting": "brain, i.p. 25 mg/kg, mice", "value": 111.39, "unit": "min"},
      {"measurement": "AUC0–t", "setting": "brain, i.p. 50 mg/kg, mice", "value": "1,284,194.3 ng·min/mL (g)"},
      {"measurement": "AUC0–∞", "setting": "brain, i.p. 50 mg/kg, mice", "value": "1,285,007.9 ng·min/mL (g)"},
      {"measurement": "Cmax", "setting": "brain, i.p. 50 mg/kg, mice", "value": "39,800.0 ng/mL (g)"},
      {"measurement": "t0.5λz", "setting": "brain, i.p. 50 mg/kg, mice", "value": 106.52, "unit": "min"},
      {"measurement": "AUC0–t", "setting": "brain, p.o. 25 mg/kg, mice", "value": "333,360.7 ng·min/mL (g)"},
      {"measurement": "AUC0–∞", "setting": "brain, p.o. 25 mg/kg, mice", "value": "334,667.7 ng·min/mL (g)"},
      {"measurement": "Cmax", "setting": "brain, p.o. 25 mg/kg, mice", "value": "3799.4 ng/mL (g)"},
      {"measurement": "t0.5λz", "setting": "brain, p.o. 25 mg/kg, mice", "value": 97.20, "unit": "min"},
      {"measurement": "Kp", "setting": "male, CD-1, mouse, brain/serum, intraperitoneal, oral, both doses and routes of administration, read-out: brain-to-serum Cmax and AUC ratio", "value": "> 1"},
      {"measurement": "Tmax", "setting": "male, CD-1, mouse, intraperitoneal, oral, all cases (serum and brain, both doses and routes), read-out: time to reach the maximum concentration (tmax) (converted)", "value": 5, "unit": "min"},
      {"measurement": "half-life", "setting": "male, CD-1, mouse, intraperitoneal, oral, serum and brain, both doses and routes (i.p. and p.o.), read-out: elimination half-lives (t1/2)", "value": "58.6 to 111", "unit": "min"},
      {"measurement": "MRT", "setting": "[1]", "value": 23.6, "unit": "min"},
      {"measurement": "Tmax", "setting": "male, CD-1, mouse, ip, brain, i.p. 25 mg/kg, mice, read-out: tmax (converted)", "value": 5, "unit": "min"},
      {"measurement": "k el", "setting": "[1]", "value": 0.0001, "unit": "s⁻¹"},
      {"measurement": "MRT", "setting": "[2]", "value": 26.4, "unit": "min"},
      {"measurement": "Tmax", "setting": "male, CD-1, mouse, ip, brain, i.p. 50 mg/kg, mice, read-out: tmax (converted)", "value": 5, "unit": "min"},
      {"measurement": "k el", "setting": "[2]", "value": 0.000117, "unit": "s⁻¹"},
      {"measurement": "CL/F", "setting": "[3]", "value": 98, "unit": "mL/min/kg"},
      {"measurement": "MRT", "setting": "[3]", "value": 22, "unit": "min"},
      {"measurement": "Vd/F", "setting": "[3]", "value": 13.4, "unit": "L/kg"},
      {"measurement": "Tmax", "setting": "male, CD-1, mouse, ip, serum, i.p. 25 mg/kg, mice, read-out: tmax (converted)", "value": 5, "unit": "min"},
      {"measurement": "k el", "setting": "[3]", "value": 0.000117, "unit": "s⁻¹"},
      {"measurement": "CL/F", "setting": "[4]", "value": 48, "unit": "mL/min/kg"},
      {"measurement": "MRT", "setting": "[4]", "value": 24.4, "unit": "min"},
      {"measurement": "Vd/F", "setting": "[4]", "value": 5.89, "unit": "L/kg"},
      {"measurement": "Tmax", "setting": "male, CD-1, mouse, ip, serum, i.p. 50 mg/kg, mice, read-out: tmax (converted)", "value": 5, "unit": "min"},
      {"measurement": "k el", "setting": "[4]", "value": 0.000133, "unit": "s⁻¹"},
      {"measurement": "MRT", "setting": "[5]", "value": 110, "unit": "min"},
      {"measurement": "Tmax", "setting": "male, CD-1, mouse, po, brain, p.o. 25 mg/kg, mice, read-out: tmax (converted)", "value": 5, "unit": "min"},
      {"measurement": "k el", "setting": "[5]", "value": 0.000117, "unit": "s⁻¹"},
      {"measurement": "CL/F", "setting": "[6]", "value": 84, "unit": "mL/min/kg"},
      {"measurement": "MRT", "setting": "[6]", "value": 101, "unit": "min"},
      {"measurement": "Vd/F", "setting": "[6]", "value": 7.1, "unit": "L/kg"},
      {"measurement": "Tmax", "setting": "male, CD-1, mouse, po, serum, p.o. 25 mg/kg, mice, read-out: tmax (converted)", "value": 5, "unit": "min"},
      {"measurement": "k el", "setting": "[6]", "value": 0.0002, "unit": "s⁻¹"},
      {"measurement": "AUC0–t", "setting": "serum, i.p. 25 mg/kg, mice", "value": "254,384.6 ng·min/mL (g)"},
      {"measurement": "AUC0–∞", "setting": "serum, i.p. 25 mg/kg, mice", "value": "254,465.4 ng·min/mL (g)"},
      {"measurement": "Cmax", "setting": "serum, i.p. 25 mg/kg, mice", "value": "11,033.3 ng/mL (g)"},
      {"measurement": "t0.5λz", "setting": "serum, i.p. 25 mg/kg, mice", "value": 94.29, "unit": "min"},
      {"measurement": "AUC0–t", "setting": "serum, i.p. 50 mg/kg, mice", "value": "1,045,787.2 ng·min/mL (g)"},
      {"measurement": "AUC0–∞", "setting": "serum, i.p. 50 mg/kg, mice", "value": "1,045,940.8 ng·min/mL (g)"},
      {"measurement": "Cmax", "setting": "serum, i.p. 50 mg/kg, mice", "value": "37,566.7 ng/mL (g)"},
      {"measurement": "t0.5λz", "setting": "serum, i.p. 50 mg/kg, mice", "value": 85.42, "unit": "min"},
      {"measurement": "AUC0–t", "setting": "serum, p.o. 25 mg/kg, mice", "value": "297,899.7 ng·min/mL (g)"},
      {"measurement": "AUC0–∞", "setting": "serum, p.o. 25 mg/kg, mice", "value": "298,019.5 ng·min/mL (g)"},
      {"measurement": "Cmax", "setting": "serum, p.o. 25 mg/kg, mice", "value": "3740.0 ng/mL (g)"},
      {"measurement": "t0.5λz", "setting": "serum, p.o. 25 mg/kg, mice", "value": 58.62, "unit": "min"}
    ]}
  ]
}
